Experiments:
[1] = molecular target: T1, B-RAF V600E (Homo sapiens, UniProt P15056, V600E); assay: Target protein degradation, assay C: T-Rex 293 cells, HA-BRAF_V600E, 384 well format; format: cell-based; conditions: T-Rex 293 HA-BRAF_V600E cells, 24 hours, Examples 83-269; for DC50: Assay C; for Dmax: T-REx-293, Assay C
T1 construct: expressed in transfected cells; host or cells: T-Rex 293 cells (Invitrogen #R71007)
Method in brief: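 After 24 h exposure to an 11-point 1:3 series (300 nM–5 pM, 0.5% DMSO), fixed T-Rex 293 cells carrying HA-BRAF V600E (induced with 1 ng/mL doxycycline) were stained anti-HA and imaged. DC50 and Dmax were derived from BRAF intensity relative to control, and cytotoxicity from nuclear counts.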

[2] = molecular target: T2, B-RAF G466V (Homo sapiens, UniProt P15056, G466V); assay: Target protein degradation, assay D: T-Rex 293 cells, HA-BRAF_G466V, 384 well format; format: cell-based; conditions: T-Rex 293 HA-BRAF_G466V cells, 24 hours, Examples 83-269; for DC50: Assay D; for Dmax: T-REx-293, Assay D
T2 construct: expressed in transfected cells; host or cells: T-Rex 293 cells (Invitrogen #R71007)
Method in brief: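 Degradation measured by high-content imaging of anti-HA immunofluorescence in fixed T-Rex 293 cells carrying inducible HA-BRAF G466V (1 ng/mL doxycycline), after 24 h PROTAC exposure at 37 °C over 300 nM–5 pM (1:3, 11 points, 0.5% DMSO). Outputs DC50 and Dmax as % of control; nuclei counts against DMSO wells gauge toxicity.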

T1 sequence (P15056 whole entry V600E): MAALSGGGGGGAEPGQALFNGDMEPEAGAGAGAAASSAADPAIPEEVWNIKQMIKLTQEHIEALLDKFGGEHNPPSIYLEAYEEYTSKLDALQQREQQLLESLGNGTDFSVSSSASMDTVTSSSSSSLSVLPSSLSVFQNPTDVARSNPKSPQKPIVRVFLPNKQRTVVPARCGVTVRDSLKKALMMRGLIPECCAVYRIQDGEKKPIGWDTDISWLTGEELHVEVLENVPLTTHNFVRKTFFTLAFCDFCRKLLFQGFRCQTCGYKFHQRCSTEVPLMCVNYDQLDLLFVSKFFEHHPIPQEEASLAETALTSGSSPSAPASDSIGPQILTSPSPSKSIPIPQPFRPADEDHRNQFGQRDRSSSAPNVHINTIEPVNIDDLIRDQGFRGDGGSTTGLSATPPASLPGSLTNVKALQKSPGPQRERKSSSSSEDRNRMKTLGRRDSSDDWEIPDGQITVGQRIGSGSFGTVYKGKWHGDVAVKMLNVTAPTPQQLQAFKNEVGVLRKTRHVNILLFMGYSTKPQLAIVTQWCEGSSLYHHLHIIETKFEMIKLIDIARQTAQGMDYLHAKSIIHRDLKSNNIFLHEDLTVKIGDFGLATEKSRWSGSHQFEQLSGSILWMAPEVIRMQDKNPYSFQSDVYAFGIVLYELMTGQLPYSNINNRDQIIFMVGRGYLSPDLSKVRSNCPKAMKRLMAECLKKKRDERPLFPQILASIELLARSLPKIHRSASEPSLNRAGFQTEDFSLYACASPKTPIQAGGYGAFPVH
T2 sequence (P15056 whole entry G466V): as the sequence (P15056 whole entry V600E) above, with G466V, E600V counted along it

Compound | DC50 [1] | Dmax [1] | DC50 [2] | Dmax [2]
N#Cc1c(NS(=O)(=O)N2CC[C@@H](F)C2)ccc(F)c1Oc1ccc2ncn(-c3ccc(NC4CCN(c5ccc6c(c5)C(=O)N(C5CCC(=O)NC5=O)C6=O)CC4)nc3)c(=O)c2c1 (stereo partly drawn) [Example 157, (3R)-N-[2-cyano-3-({3-[6-({1-[2-(2,6-dioxopiperidin-3-yl)-1,3-dioxo-2,3-dihydro-1H-isoindol-5-yl]piperidin-4-yl}amino)pyridin-3-yl]-4-oxo-3,4-dihydroquinazolin-6-yl}oxy)-4-fluorophenyl]-3-fluoropyrrolidine-1-sulfonamide] | 50 to 500 nM | 35 to 70% | > 30 nM | 
N#Cc1c(NS(=O)(=O)N2CC[C@@H](F)C2)ccc(F)c1Oc1ccc2ncn(-c3ccc(N4CCC(c5ccc6c(c5)C(=O)N(C5CCC(=O)NC5=O)C6=O)CC4)nc3)c(=O)c2c1 (stereo partly drawn) [Example 135, (3R)-N-(2-cyano-3-{[3-(6-{4-[2-(2,6-dioxopiperidin-3-yl)-1,3-dioxo-2,3-dihydro-1H-isoindol-5-yl]piperidin-1-yl}pyridin-3-yl)-4-oxo-3,4-dihydroquinazolin-6-yl]oxy}-4-fluorophenyl)-3-fluoropyrrolidine-1-sulfonamide] | > 500 nM |  | > 30 nM | 
N#Cc1c(NS(=O)(=O)N2CC[C@@H](F)C2)ccc(F)c1Oc1ccc2ncn(-c3ccc(N4CCN(CCN5CCN(c6ccc(C7CCC(=O)NC7=O)cc6F)CC5)CC4)cc3)c(=O)c2c1 (stereo partly drawn) [Example 244, (3R)-N-{2-cyano-3-[(3-(4-[4-(2-{4-[4-(2,6-dioxopiperidin-3-yl)-2-fluorophenyl]piperazin-1-yl}ethyl)piperazin-1-yl]phenyl}-4-oxo-3,4-dihydroquinazolin-6-yl)oxy]-4-fluorophenyl}-3-fluoropyrrolidine-1-sulfonamide] | 50 to 500 nM | 35 to 70% | 1 to 10 nM | ≤ 35%
COc1cc(N2CCN(CC3CCN(c4ccc(-n5cnc6ccc(Oc7c(F)ccc(NS(=O)(=O)N8CC[C@@H](F)C8)c7C#N)cc6c5=O)cn4)CC3)CC2)cc2c1C(=O)N(C1CCC(=O)NC1=O)C2=O (stereo partly drawn) [Example 138, (3R)-N-{2-cyano-3-[(3-{6-[4-({4-[2-(2,6-dioxopiperidin-3-yl)-7-methoxy-1,3-dioxo-2,3-dihydro-1H-isoindol-5-yl]piperazin-1-yl}methyl)piperidin-1-yl]pyridin-3-yl}-4-oxo-3,4-dihydroquinazolin-6-yl)oxy]-4-fluorophenyl}-3-fluoropyrrolidine-1-sulfonamide] | 50 to 500 nM | ≤ 35% | 1 to 10 nM | ≤ 35%
C[C@H]1CN(CC2CCN(c3ccc4c(c3F)CN([C@@H]3CCC(=O)NC3=O)C4=O)CC2)CCN1c1ccc(-n2cnc3ccc(Oc4c(F)ccc(NS(=O)(=O)N5CC[C@@H](F)C5)c4C#N)cc3c2=O)nc1 [Example 214, (3R)-N-{2-cyano-3-[(3-{5-[(2S)-4-[(1-{2-[(3R)-2,6-dioxopiperidin-3-yl]-4-fluoro-1-oxo-2,3-dihydro-1H-isoindol-5-yl}piperidin-4-yl)methyl]-2-methylpiperazin-1-yl]pyridin-2-yl}-4-oxo-3,4-dihydroquinazolin-6-yl)oxy]-4-fluorophenyl}-3-fluoropyrrolidine-1-sulfonamide] | > 500 nM |  | 10 to 30 nM | ≤ 35%
N#Cc1c(NS(=O)(=O)N2CC[C@@H](F)C2)ccc(F)c1Oc1ccc2ncn(-c3ccc(N4CCN(CC5CN(c6cc(F)c7c(c6)CN(C6CCC(=O)NC6=O)C7=O)C5)CC4)cc3)c(=O)c2c1 (stereo partly drawn) [Example 247, (3R)—N-{2-cyano-3-[(3-{4-[4-({1-[2-(2,6-dioxopiperidin-3-yl)-7-fluoro-1-oxo-2,3-dihydro-1H-isoindol-5-yl]azetidin-3-yl}methyl)piperazin-1-yl]phenyl}-4-oxo-3,4-dihydroquinazolin-6-yl)oxy]-4-fluorophenyl}-3-fluoropyrrolidine-1-sulfonamide] | 50 to 500 nM | ≥ 70% | 1 to 10 nM | 35 to 70%
CN(c1ccc2c(c1)CN([C@H]1CCC(=O)NC1=O)C2=O)C1CCC2(CC1)CCN(CC1CCN(c3ccc(-n4cnc5ccc(Oc6c(F)ccc(NS(=O)(=O)N7CC[C@@H](F)C7)c6C#N)cc5c4=O)cc3)CC1)CC2 [Example 222, (3R)-N-[2-cyano-3-({3-[4-(4-{[9-({2-[(3S)-2,6-dioxopiperidin-3-yl]-1-oxo-2,3-dihydro-1H-isoindol-5-yl}(methyl)amino)-3-azaspiro[5.5]undecan-3-yl]methyl}piperidin-1-yl)phenyl]-4-oxo-3,4-dihydroquinazolin-6-yl}oxy)-4-fluorophenyl]-3-fluoropyrrolidine-1-sulfonamide] | 50 to 500 nM | 35 to 70% | 1 to 10 nM | 35 to 70%
N#Cc1c(NS(=O)(=O)N2CC[C@@H](F)C2)ccc(F)c1Oc1ccc2ncn(-c3ccc(N4CCC(CN5CCC6(CC5)CN(c5cccc7c5CN(C5CCC(=O)NC5=O)C7=O)C6)CC4)nc3)c(=O)c2c1 (stereo partly drawn) [Example 169, (3R)-N-{2-cyano-3-[(3-{6-[4-({2-[2-(2,6-dioxopiperidin-3-yl)-1-oxo-2,3-dihydro-1H-isoindol-4-yl]-2,7-diazaspiro[3.5]nonan-7-yl}methyl)piperidin-1-yl]pyridin-3-yl}-4-oxo-3,4-dihydroquinazolin-6-yl)oxy]-4-fluorophenyl}-3-fluoropyrrolidine-1-sulfonamide] | 50 to 500 nM | 35 to 70% | 1 to 10 nM | ≤ 35%
N#Cc1c(NS(=O)(=O)N2CC[C@@H](F)C2)ccc(F)c1Oc1ccc2ncn(-c3ccc(N4CC5(CC(CN6CCN(c7ccc8c(c7)CN([C@H]7CCC(=O)NC7=O)C8=O)CC6)C5)C4)cc3)c(=O)c2c1 [Example 191, (3R)-N-(2-cyano-3-{[3-(4-{6-[(4-{2-[(3S)-2,6-dioxopiperidin-3-yl]-1-oxo-2,3-dihydro-1H-isoindol-5-yl}piperazin-1-yl)methyl]-2-azaspiro[3.3]heptan-2-yl}phenyl)-4-oxo-3,4-dihydroquinazolin-6-yl]oxy}-4-fluorophenyl)-3-fluoropyrrolidine-1-sulfonamide] | 50 to 500 nM | 35 to 70% | 1 to 10 nM | 35 to 70%
N#Cc1c(NS(=O)(=O)N2CC[C@@H](F)C2)ccc(F)c1Oc1ccc2ncn(-c3ccc(N4CCC(CN5CC6(C5)CN(c5ccc7c(c5)C(=O)N(C5CCC(=O)NC5=O)C7=O)C6)CC4)nc3)c(=O)c2c1 (stereo partly drawn) [Example 171, (3R)-N-{2-cyano-3-[(3-{6-[4-({6-[2-(2,6-dioxopiperidin-3-yl)-1,3-dioxo-2,3-dihydro-1H-isoindol-5-yl]-2,6-diazaspiro[3.3]heptan-2-yl}methyl)piperidin-1-yl]pyridin-3-yl}-4-oxo-3,4-dihydroquinazolin-6-yl)oxy]-4-fluorophenyl}-3-fluoropyrrolidine-1-sulfonamide] | 50 to 500 nM | 35 to 70% | 1 to 10 nM | 35 to 70%
N#Cc1c(NS(=O)(=O)N2CC[C@@H](F)C2)ccc(F)c1Oc1ccc2ncn(-c3ccc(N4CCN(CC5CCN(c6cc7c(c(C(F)(F)F)c6)C(=O)N(C6CCC(=O)NC6=O)C7)CC5)CC4)cc3)c(=O)c2c1 (stereo partly drawn) [Example 266, (3R)-N-{2-cyano-3-[(3-{4-[4-({1-[2-(2,6-dioxopiperidin-3-yl)-1-oxo-7-(trifluoromethyl)-2,3-dihydro-1H-isoindol-5-yl]piperidin-4-yl}methyl)piperazin-1-yl]phenyl}-4-oxo-3,4-dihydroquinazolin-6-yl)oxy]-4-fluorophenyl}-3-fluoropyrrolidine-1-sulfonamide] | 50 to 500 nM | 35 to 70% | > 30 nM | 
N#Cc1c(NS(=O)(=O)N2CC[C@@H](F)C2)ccc(F)c1Oc1ccc2ncn(-c3ccc(N4CCN(CC5CCN(c6ccc7c(c6)CN([C@@H]6CCC(=O)NC6=O)C7=O)CC5)CC4)cc3)c(=O)c2c1 [Example 103, (3R)-N-(2-cyano-3-{[3-(4-{4-[(1-{2-[(3R)-2,6-dioxopiperidin-3-yl]-1-oxo-2,3-dihydro-1H-isoindol-5-yl}piperidin-4-yl)methyl]piperazin-1-yl}phenyl)-4-oxo-3,4-dihydroquinazolin-6-yl]oxy}-4-fluorophenyl)-3-fluoropyrrolidine-1-sulfonamide] | 5 to 50 nM | 35 to 70% | 1 to 10 nM | 35 to 70%
N#Cc1c(NS(=O)(=O)N2CC[C@@H](F)C2)ccc(F)c1Oc1ccc2ncn(-c3ccc(N4CCC5(CCN(CC6CCN(c7ccc8c(c7)CN([C@@H]7CCC(=O)NC7=O)C8=O)CC6)CC5)CC4)cc3)c(=O)c2c1 [Example 201, (3R)-N-(2-cyano-3-{[3-(4-{9-[(1-{2-[(3R)-2,6-dioxopiperidin-3-yl]-1-oxo-2,3-dihydro-1H-isoindol-5-yl}piperidin-4-yl)methyl]-3,9-diazaspiro[5.5]undecan-3-yl}phenyl)-4-oxo-3,4-dihydroquinazolin-6-yl]oxy}-4-fluorophenyl)-3-fluoropyrrolidine-1-sulfonamide] | 50 to 500 nM | 35 to 70% | 1 to 10 nM | 35 to 70%

— US11957759B1, “Rapidly accelerated fibrosarcoma (RAF) degrading compounds and associated methods of use” (Arvinas Operations, Inc., priority 2022, dated 2024)
